Reference: US11466012B2, “Tetrahydroisoquinoline compounds” (ALLINKY BIOPHARMA, priority 2018, dated 2022)
pIC50: −log10 of the molar value.

Experiments:
Assay type in all cases: cell-based
[1] = system: A549 lung carcinoma cell line bearing KRas^G12S oncogenic mutation; test: Cell proliferation inhibition (MTS), A549; conditions: Homo sapiens, 72 h incubation, MTS, compounds 1-53, median from experimental results
Procedure: (§1) • Cell line #1: A549. Lung carcinoma cell line bearing KRas^G12S oncogenic mutation • Cell line #2: H358. non-small cell lung cancer line bearing KRas^G12C oncogenic mutation • Cell line #3: PANC-1. epithelioid carcinoma of the pancreas cell line bearing KRas^G12D oncogenic mutation • Cell line #4: RPMI. myeloma cell line bearing KRas^G12A oncogenic mutation
(§2) Cell lines were cultured in DMEM or RPMI-1640 supplemented with FBS 10%. In order to assess the antiproliferative effect of compounds, cells were seeded at a density of 1.8×10^3, 6.2×10^3, 7.8×10^3, 21×10^3 and 2×10^3 cells/cm^2, respectively, in tissue culture microplates and were incubated in humidified atmosphere at 5% CO2. 24 h later, compounds dissolved in DMSO 100% were added for different final concentrations ranging between 0.1 and 50 μM for a final DMSO concentration of 0.5% and the plates were incubated for another 72 h. After incubation, proliferation was quantified using CellTiter 96® Aqueous Non-Radioactive Cell Proliferation Assay-MTS (Promega #G5421) following manufacturer instructions. Amount of 490 nm absorbance is directly proportional to the number of living cells. Absorbance was recorded with a BMG Fluostar Optima Microplate Reader and normalized to control with vehicle.

[2] = system: H358 non-small cell lung cancer line bearing KRas^G12C oncogenic mutation; test: Cell proliferation inhibition (MTS), H358; conditions: Homo sapiens, NCI-H358; 72 h incubation, MTS; compounds 1-53, median from experimental results
Procedure: as §1, §2

[3] = system: RPMI-8226 myeloma cell line bearing KRas^G12A oncogenic mutation; test: Cell proliferation inhibition (MTS), RPMI-8226; conditions: Homo sapiens, 72 h incubation, MTS, compounds 1-53, median from experimental results
Procedure: as §1, §2

[4] = system: PANC-1 epithelioid carcinoma of the pancreas cell line bearing KRas^G12D oncogenic mutation; test: Cell proliferation inhibition (MTS), PANC-1; conditions: Homo sapiens, 72 h incubation, MTS, compounds 1-53, median from experimental results
Procedure: as §1, §2

Compound | pIC50 [1] | pIC50 [2] | pIC50 [3] | pIC50 [4]
CCC(=O)CCN1CCc2cc(OC)c(OCc3cccc(O)c3)cc2C1c1ccc(C)cc1Cl (stereo not shown) [Compound 2] | 5.08 | 4.92 | 5.74 | 4.76
COc1cc2c(cc1OCCc1cccc(OC(C)=O)c1)C(c1ccc(C)cc1C)N(C(=O)NCc1cocn1)CC2 (stereo not shown) [Compound 3] | 5.71 | 5.78 | 5.92 | 5.80
CCC(=O)CCN1CCc2cc(OC)c(OCC(=O)c3cccc(C(=O)OC)c3)cc2C1c1ccc(C)cc1Cl (stereo not shown) [Compound 4] | 5.00 | < 4.70 | 5.57 | 4.53
COc1cc2c(cc1OCCc1cccc(O)c1)C(c1c(O)cc(C)cc1Cl)N(CCC(C)=O)CC2 (stereo not shown) [Compound 5] | 5.32 | < 4.70 | 5.82 | < 4.52
CCC(=O)CCN1CCc2cc(OC)c(OCCc3cccc(O)c3)cc2C1c1ccc(C)cc1C (stereo not shown) [Compound 7] | 5.20 | 4.74 | 5.62 | 4.61
CCC(=O)CCN1CCc2cc(OC)c(OCCc3cccc(O)c3)cc2C1c1ccc(OC)c(OC)c1Cl (stereo not shown) [Compound 8] | 5.39 | 4.95 | 5.68 | 4.95
CCC(=O)CCN1CCc2cc(OC)c(OCCc3cccc(O)c3)cc2C1c1ccccc1C (stereo not shown) [Compound 9] | 5.44 | 4.72 | 6.13 | 4.61
COc1cc2c(cc1OCCc1cccc(O)c1)C(c1c(C)cc(C)cc1O)N(CCC(C)=O)CC2 (stereo not shown) [Compound 10] | 4.80 | 4.70 | 6.07 | 4.82
COc1ccc(C2c3cc(OCCc4cccc(O)c4)c(OC)cc3CCN2CCC(C)=O)c(C)c1 (stereo not shown) [Compound 11] | 4.74 | 5.07 | 5.83 | 4.91
CCC(=O)CN1CCc2cc(OC)c(OCCc3cccc(O)c3)cc2C1c1ccc(C)cc1Cl (stereo not shown) [Compound 12] | 5.05 | 4.77 | 5.30 | 4.87
COc1cc2c(cc1OCCc1cccc(O)c1)C(c1ccc(C)cc1Cl)N(C(=O)NCc1ccncc1)CC2 (stereo not shown) [Compound 13] | 5.03 | 4.80 | 5.54 | 4.90
COc1cc2c(cc1OCCc1ccc3c(c1)CCC3)C(c1ccc(C)cc1C)N(C(=O)NCc1ccncc1)CC2 (stereo not shown) [Compound 14] | < 5.00 | < 5.00 | 5.40 | < 4.52
COc1cc2c(cc1OCCc1ccc3c(c1)CCO3)C(c1ccc(C)cc1C)N(C(=O)NCc1ccncc1)CC2 (stereo not shown) [Compound 15] | 5.67 | 5.59 | 6.05 | 5.67
COc1cc2c(cc1OCCc1cccc(O)c1)C(c1ccc(C)cc1C)N(C(=O)NCc1ccncc1)CC2 (stereo not shown) [Compound 16] | < 5.30 | 5.14 | 6.32 | 4.92
COc1cc2c(cc1OCCc1cccc(O)c1)C(c1ccc(C)cc1C)N(C(=O)NCc1cncs1)CC2 (stereo not shown) [Compound 19] | 6.02 | 6.17 | 5.53 | 6.24
COc1cc2c(cc1OCCc1cccc(O)c1)C(c1ccc(C)cc1C)N(C(=O)NCc1ccccn1)CC2 (stereo not shown) [Compound 20] | 6.12 | 6.32 | 6.22 | 6.25
COc1cc2c(cc1OCCc1cccc(F)c1)C(c1ccc(C)cc1C)N(C(=O)NCc1cocn1)CC2 (stereo not shown) [Compound 21] | 5.88 | 6.11 | 6.05 | 6.09
COc1cc2c(cc1OCCc1ccccc1)C(c1ccc(C)cc1C)N(C(=O)NCc1cocn1)CC2 (stereo not shown) [Compound 22] | 6.05 | 6.19 | 6.09 | 6.22
Cc1ccc(C2c3cc(OCCc4cccc(O)c4)c(C(N)=O)cc3CCN2C(=O)NCc2cocn2)c(C)c1 (stereo not shown) [Compound 24] | 6.13 | 6.08 | 6.06 | 6.18
